According to patent publication US20230134843A1, “TREATMENT OF STEM CELL DEFICIENCY” (OSPEDALE SAN RAFFAELE S.R.L., priority 2020, published 2023):
Entries after “also recorded” stand apart in the source; their conditions may differ.

Legend:
[1] = target: T1, NK1R (Mus musculus, UniProt P30548); test: Epithelial wound closure by corneal fluorescein staining, stem cell deficiency model (Example 2); assay type: in vivo, mice
T1 construct: NK1R is expressed by both corneal epithelial and stem cell-like cells; from tissue; host or cells: cornea / ocular surface of live C57BL6/N mice (topical dosing in vivo)
T1 sequence (P30548 whole entry): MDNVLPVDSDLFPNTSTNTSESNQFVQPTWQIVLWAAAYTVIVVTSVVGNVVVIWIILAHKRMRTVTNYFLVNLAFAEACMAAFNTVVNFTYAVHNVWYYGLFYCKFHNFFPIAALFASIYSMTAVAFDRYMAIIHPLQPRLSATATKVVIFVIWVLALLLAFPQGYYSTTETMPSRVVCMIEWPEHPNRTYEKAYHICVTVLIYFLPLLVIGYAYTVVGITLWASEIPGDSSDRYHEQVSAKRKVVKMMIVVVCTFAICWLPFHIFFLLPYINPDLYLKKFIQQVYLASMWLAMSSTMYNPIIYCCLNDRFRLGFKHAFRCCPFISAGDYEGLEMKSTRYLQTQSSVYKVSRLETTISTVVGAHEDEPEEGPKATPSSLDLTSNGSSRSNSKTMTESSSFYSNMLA
Text: Eight-week-old male mice C57BL6/N (Charles River, Calco, Italy) (WT mice, n=18) and Tac1-deficient B6.Cg-Tac1tm1Bbm/J (Jackson Laboratories, Bar Harbor, Me., USA) (TAC1-KO mice, n=18) were used in all experiments. TAC1-KO mice are homozygous null for the Tac1 gene. […] The corneal thickness and transparency as well as the corneal nerve length are similar to C57BL/6 mice [Barbariga M, Rabiolo A, Fonteyne P, Bignami F, Rama P, Ferrari G. The effect of aging on nerve morphology and substance P expression in mouse and human corneas. Investig Ophthalmol Vis Sci 2018; 59:5329-35. https://doi.org/10.1167/iovs.18-24707.]. […]
Every day after disepithelization, in vivo corneal photographs were taken using a digital camera (EOS 30D; Canon, Tokyo, Japan) attached to a slit-lamp microscope (Photoslitmap 40 SL-P; Zeiss, Oberkochen, Germany) to assess corneal condition. Corneal opacity was evaluated using a grading score (from 0-4; 0=completely clear, 4=completely opaque) previously described [Yoeruek E, Deuter C, Gieselmann S, Saygili O, Spitzer M S, Tatar O, et al. Long-term visual acuity and its predictors after cataract surgery in patients with uveitis. […] The percentage of green fluorescent area on the total corneal area was evaluated by analyzing images by Image J software (National Institutes of Health, Bethesda, Md., USA).

[2] = test system: stem cell-like cells; test: Stem cell-like cells detection (BrdU and p63 staining), stem cell deficiency model; assay type: in vivo, mice; conditions: Fosaprepitant 1 mg/mL (FOSA 1)
Text: Eight-week-old male mice C57BL6/N (Charles River, Calco, Italy) (WT mice, n=18) and Tac1-deficient B6.Cg-Tac1tm1Bbm/J (Jackson Laboratories, Bar Harbor, Me., USA) (TAC1-KO mice, n=18) were used in all experiments. TAC1-KO mice are homozygous null for the Tac1 gene. […] The corneal thickness and transparency as well as the corneal nerve length are similar to C57BL/6 mice [Barbariga M, Rabiolo A, Fonteyne P, Bignami F, Rama P, Ferrari G. The effect of aging on nerve morphology and substance P expression in mouse and human corneas. Investig Ophthalmol Vis Sci 2018; 59:5329-35. https://doi.org/10.1167/iovs.18-24707.]. Each animal was anesthetized with an intraperitoneal injection of tribromoethanol (250 mg/kg) and a topical anesthetic was applied to their ocular surface prior to the surgical procedure. Total disepithelization was performed based on the model previously described [Amirjamshidi H, Milani B Y, Sagha H M, Movahedan A, Shafiq M A, Lavker R M, et al. Limbal fibroblast conditioned media: A non-invasive treatment for limbal stem cell deficiency. Mol Vis 2011; 17:658], using a blunt spatula to scrap the entire corneal epithelium, including the limbus. Then, fluorescein staining was used to confirm complete removal of the corneal epithelium under the blue light of a slit-lamp microscope. After wounding, eyes were treated with ophthalmic moxifloxacin 1 time/day for 1 week to […]. Fourteen days after disepithelization mice were euthanized using carbon dioxide inhalation and subsequent cervical dislocation. Corneas were collected for immunostaining and western blot analysis. All experimental protocols were approved by the Animal Care and Use Committee of the Istituto di Ricovero e cura a Carattere Scientifico San Raffaele Scientific Institute, in accordance with the ARVO Statement for the Use of Animals in Ophthalmic and Vision Research.
To evaluate the pharmacological inhibition of Substance P, mice received 10 μL of Fosaprepitant topically (IVEMEND, Merck Sharp & Dohme Ltd., Hoddes-don, UK) in two different concentrations: 0.1 mg/mL (FOSA 0.1, n=5) or 1 mg/mL (FOSA 1, n=5) 4 times/day every 2 hours […]. Control animals received instead 10 μL of vehicle (PBS) (WT, n=5). The treatments started the same day that corneal disepithelization was performed.
Immediately after corneal dispepithelization, animals were intraperitoneally injected with […] (BrdU) (50 ug/g body weight, ab142567, Abcam) twice a day (9 a.m and 4 p.m), for 7 days. […] The images were acquired by epifluorescence microscope (Leica CTR5500; Leica Microsystems, Wetzlar, Germany) (20×) and analyzed with Image J software. A negative control using only the secondary antibody was used to establish a fluorescence threshold. […]

C[C@@H](O[C@H]1OCCN(Cc2nc(=O)n(P(=O)(O)O)[nH]2)[C@H]1c1ccc(F)cc1)c1cc(C(F)(F)F)cc(C(F)(F)F)c1 [Fosaprepitant, [3-{[(2R,3S)-2-[(1R)-1-[3,5-bis(trifluoromethyl)phenyl]ethoxy]-3-(4-fluorophenyl)morpholin-4-yl]methyl}-5-oxo-2H-1,2,4-triazol-1-yl]phosphonic acid]
wound closure compared to WT ([1]; Fosaprepitant 0.1 mg/mL (FOSA 0.1) topically 4 times/day for 16 days): did not show any improvement; also recorded: no improvement
wound closure rate compared to WT ([1]; Fosaprepitant 1 mg/mL (FOSA 1) topically 4 times/day for 16 days, from day five, p<0.05): significant improvement; also recorded: significant faster epithelial wound closure
p63 content compared to WT [2]: no differences
BrdU staining in the corneal epithelium compared to WT ([2]; p<0.01): significant increase
number of stem cell-like cells (epithelial stem cells) compared to WT ([2]; p<0.01): increase number
percentage of p63/BrdU colocalization compared to WT ([2]; p<0.05): increased percentage; also recorded: higher percentage
